In PubChem BioAssay AID1963841 (Molecular Pharmacology Branch, DTP, NCI, 2024):

Tested on: 439559-082-T-J2-PDC spheroid viability
Test: Anticancer human tumor 439559-082-T-J2-PDC patient-derived colon adenocarcinoma cell line growth inhibition [POLQ]
Settings: spheroids with HUVEC and MSC; for IC50: curve of first compound; for viability, T/C: stronger effect = lower value
Description: Multicellular complex tumor spheroid response to Polymerase (POL) inhibitors (novobiocin, ART-558, RP6685) in combination with a variety of drugs and investigational agents in selected tumor cell lines
The POL inhibitors (novobiocin, ART-558, and RP6685) were evaluated both individually and in combination with standard of care and investigational anticancer small molecules within a complex spheroid model of solid tumors. . Complex spheroids include a stromal component modeled by human endothelial cells (HUVEC) and fibroblasts modeled by human mesenchymal stem cells (MSCs). The concentration ranges selected for each drug and investigational agent were based upon clinically achievable concentrations if the clinical Cmax of the agent was known.
Compounds. The drugs and investigational agents: novobiocin (NSC847541), ART-558 (NSC835418), RP-6685 (NSC848927), peposertib (NSC802822), ceralasertib (NSC780249), elimusertib (NSC800525), camonsertib (NSC841442), AZD-1390 (NSC803789), olaparib (NSC753686), talazoparib (NSC767125), rucaparib (NSC756644), sotorasib (NSC818433), MRTX-1133 (NSC836407), SN-38 (NSC673596), topotecan (NSC609699), epotoside (NSC141540), doxorubicin (NSC123127), gemcitabine (NSC613327), 5-fluorouracil (NSC19893), paclitaxel (NSC125973), vemurafenib (NSC761431), MSA-2 (NSC828583), SN-011 (NSC837082), adavosertib (NSC754352), prexasertib (NSC758257), carboplatin (NSC241240) and oxaliplatin (NSC266046), were obtained from the National Cancer Institute (NCI) Developmental Therapeutics Program Chemical Repository (21). The FDA-approved anticancer drug set is available from the Developmental Therapeutics Program at https://dtp.cancer.gov/organization/dscb/obtaining/. […] The stock solutions were prepared in dimethyl sulfoxide (DMSO, Sigma-Aldrich, St. Louis, MO, cat. D2650), except for the platinum compounds which were prepared in saline (Quality Biological, Gaithersburg, MD, cat. 114-055-101), at 800-fold the tested concentration and stored at -70 degrees C prior to their use. All drugs and investigational agents were tested over a range starting from a high concentration at or near the clinical Cmax and decreasing in half-log increments. If the clinical Cmax for an agent had not been determined, the highest concentration tested was 10 microM, except for SN-38, which was tested at a high concentration of 1 microM.
Cell Culture. All cells were maintained in an incubator at 37 degrees C and 5% CO2 with 95% humidity. The PDC lines were cultured according to standard operating procedures established by the NCI PDMR (https://pdmr.cancer.gov). Table 3 of the manuscript, lists the cell lines along with the number of the three cell types plated to form the mct-spheroids and media for tumor cell growth. After thawing, all PDC lines, except 997537-175-T-J1-PDC and 415267-285-R-J2-PDC, were cultured in Matrigel-coated flasks prepared with a working solution of 1X Ham's F-12 nutrient mix, without supplementation (Thermo Fisher Scientific, cat. 11765054), 100 U/mL penicillin-streptomycin (Thermo Fisher Scientific, cat. 15140122), and 2.5% Matrigel (Corning Inc., Corning, NY, cat. 354248) for the first three passages. The two PDC lines 997537-175-T-J1-PDC and 415267-285-R-J2-PDC were cultured on uncoated flasks. The 857933-349-R-J2-PDC line was cultured in 6C/Colon 1B media containing advanced DMEM/F-12 (Thermo Fisher Scientific, cat. 12634028), 10 mM HEPES (Thermo Fisher Scientific, cat. 15630080), 1X GlutaMAX supplement (Thermo Fisher Scientific, cat. 35050061), 0.1 mg/mL primocin (InvivoGen, San Diego, CA, cat. ant-pm-2), 10% defined fetal bovine serum, heat inactivated (HyClone Laboratories Inc., Logan, UT, cat. SH30070.03HI), 50% L-WRN conditioned media (ATCC, cat. CRL-3276), 1.25 mM N-Acetyl-L-cysteine (Sigma-Aldrich, cat. A9165), 10 mM nicotinamide (Sigma-Aldrich, cat. N0636), 1X B-27 supplement (Thermo Fisher Scientific, cat. 17504044), 1X N-2 supplement (Thermo Fisher Scientific, cat. […]
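Further: spheroids exposed to compounds for seven days before readout.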
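Wherever viability, T/C is given: 100% = DMSO vehicle control viability.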

SMILES: Cn1ncnc1[C@H]1c2n[nH]c(=O)c3cc(F)cc(c23)N[C@@H]1c1ccc(F)cc1 + Nc1ccc(C#CCN(C(=O)Cc2ncc(C(F)(F)F)cc2C(F)(F)F)c2ccc(F)cc2)nn1
- IC50 (second compound 0.0316 µM): > 0.1 µM
- IC50 (second compound 0.1 µM): > 0.1 µM
- IC50 (second compound 0.316 µM): > 0.1 µM
- IC50 (second compound 1 µM): > 0.1 µM
- IC50 (second compound 3.16 µM): > 0.1 µM
- IC50 (second compound 10 µM): > 0.1 µM
- viability, T/C (second compound 0.0316 µM, first compound 0.000316 µM): 91.8%
- viability, T/C (second compound 0.0316 µM, first compound 0.001 µM): 104%
- viability, T/C (second compound 0.0316 µM, first compound 0.00316 µM): 89.9%
- viability, T/C (second compound 0.0316 µM, first compound 0.01 µM): 103%
- viability, T/C (second compound 0.0316 µM, first compound 0.0316 µM): 101%
- viability, T/C (second compound 0.0316 µM, first compound 0.1 µM): 91.7%
- viability, T/C (second compound 0.1 µM, first compound 0.000316 µM): 103%
- viability, T/C (second compound 0.1 µM, first compound 0.001 µM): 88.9%
- viability, T/C (second compound 0.1 µM, first compound 0.00316 µM): 86.6%
- viability, T/C (second compound 0.1 µM, first compound 0.01 µM): 93.2%
- viability, T/C (second compound 0.1 µM, first compound 0.0316 µM): 93.1%
- viability, T/C (second compound 0.1 µM, first compound 0.1 µM): 89.1%
- viability, T/C (second compound 0.316 µM, first compound 0.000316 µM): 99.4%
- viability, T/C (second compound 0.316 µM, first compound 0.001 µM): 112%
- viability, T/C (second compound 0.316 µM, first compound 0.00316 µM): 90.2%
- viability, T/C (second compound 0.316 µM, first compound 0.01 µM): 94.6%
- viability, T/C (second compound 0.316 µM, first compound 0.0316 µM): 99.1%
- viability, T/C (second compound 0.316 µM, first compound 0.1 µM): 90%
- viability, T/C (second compound 1 µM, first compound 0.000316 µM): 111%
- viability, T/C (second compound 1 µM, first compound 0.001 µM): 105%
- viability, T/C (second compound 1 µM, first compound 0.00316 µM): 104%
- viability, T/C (second compound 1 µM, first compound 0.01 µM): 102%
- viability, T/C (second compound 1 µM, first compound 0.0316 µM): 94.3%
- viability, T/C (second compound 1 µM, first compound 0.1 µM): 102%
- viability, T/C (second compound 3.16 µM, first compound 0.000316 µM): 85.2%
- viability, T/C (second compound 3.16 µM, first compound 0.001 µM): 106%
- viability, T/C (second compound 3.16 µM, first compound 0.00316 µM): 103%
- viability, T/C (second compound 3.16 µM, first compound 0.01 µM): 96.2%
- viability, T/C (second compound 3.16 µM, first compound 0.0316 µM): 99.4%
- viability, T/C (second compound 3.16 µM, first compound 0.1 µM): 94.2%
- viability, T/C (second compound 10 µM, first compound 0.000316 µM): 93.1%
- viability, T/C (second compound 10 µM, first compound 0.001 µM): 122%
- viability, T/C (second compound 10 µM, first compound 0.00316 µM): 87.8%
- viability, T/C (second compound 10 µM, first compound 0.01 µM): 85.4%
- viability, T/C (second compound 10 µM, first compound 0.0316 µM): 101%
- viability, T/C (second compound 10 µM, first compound 0.1 µM): 112%
